≈ marks a conversion by molar mass, not a printed value.
Key:
[1] = test system: M. tuberculosis H37Rv; assay: Microplate Alamar Blue MIC assay, M. tuberculosis H37Rv; assay type: cell-based; details: Mycobacterium tuberculosis, read-out: antibacterial activity M. tuberculosis H37Rv MIC
[2] = test system: M. avium ATCC 25291; assay: Microplate Alamar Blue MIC assay, M. avium; assay type: cell-based, Mycobacterium avium

| SMILES | MIC [1] | antibacterial activity M. avium ATCC 25291 [2] |
| --- | --- | --- |
| CO[C@H]1/C=C/O[C@@]2(C)Oc3c(C)c(O)c4c(O)c(c(/C=N/N5CCN(c6ccc(F)cc6NC(=O)C(Cc6ccccc6)NC(=O)c6ccccc6F)CC5)c(O)c4c3C2=O)NC(=O)/C(C)=C\C=C\[C@H](C)[C@H](O)[C@@H](C)[C@@H](O)[C@@H](C)[C@H](OC(C)=O)[C@@H]1C (some centres unmarked) [IX-398, Rifamycin SV—(CHN)—IX-214 Conjugate] | 0.39 µg/mL (≈ 0.328 µM) | 0.098 |
| CO[C@H]1/C=C/O[C@@]2(C)Oc3c(C)c(O)c4c(O)c(c(/C=N/N5CCN(CCN6CCN(c7ccc(F)cc7NC(=O)C(Cc7ccccc7)NC(=O)c7ccccc7F)CC6)CC5)c(O)c4c3C2=O)NC(=O)/C(C)=C\C=C\[C@H](C)[C@H](O)[C@@H](C)[C@@H](O)[C@@H](C)[C@H](OC(C)=O)[C@@H]1C (some centres unmarked) [IX-403, Rifamycin SV—(CHN)—IX-402 Conjugate] | 3.13 µg/mL (≈ 2.41 µM) | 3.13 |
| [2H]C([2H])(c1ccccc1)C(NC(=O)c1ccccc1F)C(=O)Nc1cc(F)ccc1N1CCN(/N=C/c2c3c(O)c4c(O)c(C)c5c(c4c2O)C(=O)[C@@](C)(O/C=C/[C@H](OC)[C@@H](C)[C@@H](OC(C)=O)[C@H](C)[C@H](O)[C@H](C)[C@@H](O)[C@@H](C)/C=C/C=C(/C)C(=O)N3)O5)CC1 (some centres unmarked) [IX-404a, Rifamycin SV—(CHN)—IX-370a Conjugate] | 0.049 µg/mL (≈ 0.0412 µM) | 0.048 |
| [2H]C([2H])(c1ccccc1)C(NC(=O)c1ccccc1F)C(=O)Nc1cc(F)ccc1N1CCN(C(=O)COc2cc3c(O)c4c(O)c(C)c5c(c24)C(=O)[C@@](C)(O/C=C/[C@H](OC)[C@@H](C)[C@@H](OC(C)=O)[C@H](C)[C@H](O)[C@H](C)[C@@H](O)[C@@H](C)/C=C/C=C(/C)C(=O)N3)O5)CC1 (some centres unmarked) [IX-408a, Rifamycin B—IX-370a Conjugate] | 0.2 µg/mL (≈ 0.166 µM) | 0.78 |
| [2H]C([2H])(c1ccccc1)C(NC(=O)c1ccccc1F)C(=O)Nc1cc(F)ccc1N1CCN(/N=C/C2=C3NC(=O)/C(C)=C\C=C\[C@H](C)[C@H](O)[C@@H](C)[C@@H](O)[C@@H](C)[C@H](OC(C)=O)[C@H](C)[C@@H](OC)/C=C/O[C@@]4(C)Oc5c(C)c(O)c(c(c5C4=O)C2=O)C3=O)CC1 (some centres unmarked) [IX-476a, Rifamycin S—(CHN)—IX-370a Conjugate] | 0.2 µg/mL (≈ 0.168 µM) | – |
| CO[C@H]1/C=C/O[C@@]2(C)Oc3c(C)c(O)c4c(O)c(c(/C=N/N5CCN(C)CC5)c(O)c4c3C2=O)NC(=O)/C(C)=C\C=C\[C@H](C)[C@H](O)[C@@H](C)[C@@H](O)[C@@H](C)[C@H](OC(C)=O)[C@@H]1C [rifampin, reference compound] | 0.049 µg/mL (≈ 0.0595 µM) | 0.024 |

Source: patent US11447502B2, “Antibacterial agents: dual-targeted RNA polymerase inhibitors” (priority 2018, dated 2022)
